In the supplement of paper PMC13380429:

Columns and labels:
Conditions in all cases: 72 h
[1] = tested on: Caco-2; test: cell viability relative to DMSO; higher = less toxic
[2] = tested on: Calu-3; test: as above
[3] = tested on: HepG2; test: as above
[4] = tested on: U2OS; test: as above
[5] = tested on: Vero E6; test: as above
[6] = tested on: Caco-2; test: relative viability EC50 (midpoint between 100% and the lowest measured viability); higher = less toxic
[7] = tested on: Calu-3; test: as above
[8] = tested on: HepG2; test: as above
[9] = tested on: U2OS; test: as above
[10] = tested on: Vero E6; test: as above
[11] = tested on: Caco-2; test: drug sensitivity score (DSS) for viability; higher = more toxic; extreme values may be limits of the assay
[12] = tested on: Calu-3; test: as above
[13] = tested on: HepG2; test: as above
[14] = tested on: U2OS; test: as above
[15] = tested on: Vero E6; test: as above

Structure (SMILES): O=C(O[C@H]1CN2CCC1CC2)N(Cc1cc(F)c(F)c(F)c1)c1cccc(F)c1 [tarafenacin]
- cell viability ([1]; 1 nM): 102%
- cell viability ([1]; 10 nM): 96.5%
- cell viability ([1]; 100 nM): 91.3%
- cell viability ([1]; 1000 nM): 104%
- cell viability ([1]; 10000 nM): 95.7%
- cell viability ([2]; 1 nM): 96.4%
- cell viability ([2]; 10 nM): 106%
- cell viability ([2]; 100 nM): 106%
- cell viability ([2]; 1000 nM): 113%
- cell viability ([2]; 10000 nM): 96.2%
- cell viability ([3]; 1 nM): 115%
- cell viability ([3]; 10 nM): 106%
- cell viability ([3]; 100 nM): 108%
- cell viability ([3]; 1000 nM): 96.5%
- cell viability ([3]; 10000 nM): 99.3%
- cell viability ([4]; 1 nM): 95.7%
- cell viability ([4]; 10 nM): 102%
- cell viability ([4]; 100 nM): 100%
- cell viability ([4]; 1000 nM): 103%
- cell viability ([4]; 10000 nM): 91.3%
- cell viability ([5]; 1 nM): 99.7%
- cell viability ([5]; 10 nM): 99.6%
- cell viability ([5]; 100 nM): 107%
- cell viability ([5]; 1000 nM): 98.7%
- cell viability ([5]; 10000 nM): 90.2%
- relative viability EC50 [6]: > 10 µM
- relative viability EC50 [7]: > 10 µM
- relative viability EC50 [8]: > 10 µM
- relative viability EC50 [9]: > 10 µM
- relative viability EC50 [10]: > 10 µM
- drug sensitivity score [11]: 0
- drug sensitivity score [12]: 0
- drug sensitivity score [13]: 0
- drug sensitivity score [14]: 0
- drug sensitivity score [15]: 0

Structure (SMILES): CC[C@H]1OC(=O)[C@H](C)C(=O)[C@H](C)[C@@H](O[C@@H]2O[C@H](C)C[C@H](N(C)C)[C@H]2O)[C@](C)(OC)C[C@@H](C)C(=O)[C@H](C)[C@H]2N(CCCCn3cnc(-c4cccnc4)c3)C(=O)O[C@]12C [telithromycin]
- cell viability ([1]; 1 nM): 100%
- cell viability ([1]; 10 nM): 99.5%
- cell viability ([1]; 100 nM): 100%
- cell viability ([1]; 1000 nM): 104%
- cell viability ([1]; 10000 nM): 89%
- cell viability ([2]; 1 nM): 107%
- cell viability ([2]; 10 nM): 101%
- cell viability ([2]; 100 nM): 89%
- cell viability ([2]; 1000 nM): 99.8%
- cell viability ([2]; 10000 nM): 100%
- cell viability ([3]; 1 nM): 105%
- cell viability ([3]; 10 nM): 96.6%
- cell viability ([3]; 100 nM): 103%
- cell viability ([3]; 1000 nM): 101%
- cell viability ([3]; 10000 nM): 109%
- cell viability ([4]; 1 nM): 88%
- cell viability ([4]; 10 nM): 95.4%
- cell viability ([4]; 100 nM): 95%
- cell viability ([4]; 1000 nM): 95.2%
- cell viability ([4]; 10000 nM): 97%
- cell viability ([5]; 1 nM): 98.1%
- cell viability ([5]; 10 nM): 98.9%
- cell viability ([5]; 100 nM): 96.1%
- cell viability ([5]; 1000 nM): 96.1%
- cell viability ([5]; 10000 nM): 106%
- relative viability EC50 [6]: > 10 µM
- relative viability EC50 [7]: > 10 µM
- relative viability EC50 [8]: > 10 µM
- relative viability EC50 [9]: > 10 µM
- relative viability EC50 [10]: > 10 µM
- drug sensitivity score [11]: 0
- drug sensitivity score [12]: 0
- drug sensitivity score [13]: 0
- drug sensitivity score [14]: 0
- drug sensitivity score [15]: 0

Structure (SMILES): CC(C)OC(=O)OCOP(=O)(CO[C@H](C)Cn1cnc2c(N)ncnc21)OCOC(=O)OC(C)C [tenofovir-disoproxil]
- cell viability ([1]; 1 nM): 96.3%
- cell viability ([1]; 10 nM): 93%
- cell viability ([1]; 100 nM): 93.8%
- cell viability ([1]; 1000 nM): 97.2%
- cell viability ([1]; 10000 nM): 89%
- cell viability ([2]; 1 nM): 97.1%
- cell viability ([2]; 10 nM): 104%
- cell viability ([2]; 100 nM): 97.1%
- cell viability ([2]; 1000 nM): 95.4%
- cell viability ([2]; 10000 nM): 80.8%
- cell viability ([3]; 1 nM): 102%
- cell viability ([3]; 10 nM): 101%
- cell viability ([3]; 100 nM): 109%
- cell viability ([3]; 1000 nM): 82.2%
- cell viability ([3]; 10000 nM): 44.6%
- cell viability ([4]; 1 nM): 96.2%
- cell viability ([4]; 10 nM): 101%
- cell viability ([4]; 100 nM): 92.6%
- cell viability ([4]; 1000 nM): 103%
- cell viability ([4]; 10000 nM): 95.8%
- cell viability ([5]; 1 nM): 102%
- cell viability ([5]; 10 nM): 94.9%
- cell viability ([5]; 100 nM): 96%
- cell viability ([5]; 1000 nM): 94.3%
- cell viability ([5]; 10000 nM): 96.7%
- relative viability EC50 [6]: > 10 µM
- relative viability EC50 [7]: > 10 µM
- relative viability EC50 [8]: 1.35 µM
- relative viability EC50 [9]: > 10 µM
- relative viability EC50 [10]: > 10 µM
- drug sensitivity score [11]: 0
- drug sensitivity score [12]: 1
- drug sensitivity score [13]: 5.6
- drug sensitivity score [14]: 0
- drug sensitivity score [15]: 0

Structure (SMILES): CN1C(C(=O)Nc2ccccn2)=C(O)c2sccc2S1(=O)=O [tenoxicam]
- cell viability ([1]; 1 nM): 98%
- cell viability ([1]; 10 nM): 102%
- cell viability ([1]; 100 nM): 96.2%
- cell viability ([1]; 1000 nM): 98.6%
- cell viability ([1]; 10000 nM): 92.6%
- cell viability ([2]; 1 nM): 99.3%
- cell viability ([2]; 10 nM): 102%
- cell viability ([2]; 100 nM): 90.7%
- cell viability ([2]; 1000 nM): 106%
- cell viability ([2]; 10000 nM): 98.2%
- cell viability ([3]; 1 nM): 94.9%
- cell viability ([3]; 10 nM): 96%
- cell viability ([3]; 100 nM): 96.5%
- cell viability ([3]; 1000 nM): 88.5%
- cell viability ([3]; 10000 nM): 101%
- cell viability ([4]; 1 nM): 93.3%
- cell viability ([4]; 10 nM): 94.4%
- cell viability ([4]; 100 nM): 93.1%
- cell viability ([4]; 1000 nM): 97%
- cell viability ([4]; 10000 nM): 93.1%
- cell viability ([5]; 1 nM): 98.5%
- cell viability ([5]; 10 nM): 96.2%
- cell viability ([5]; 100 nM): 103%
- cell viability ([5]; 1000 nM): 98.7%
- cell viability ([5]; 10000 nM): 99.8%
- relative viability EC50 [6]: > 10 µM
- relative viability EC50 [7]: > 10 µM
- relative viability EC50 [8]: > 10 µM
- relative viability EC50 [9]: > 10 µM
- relative viability EC50 [10]: > 10 µM
- drug sensitivity score [11]: 0
- drug sensitivity score [12]: 0
- drug sensitivity score [13]: 0
- drug sensitivity score [14]: 0
- drug sensitivity score [15]: 0

Structure (SMILES): Cc1ncc(C[n+]2csc(CCO)c2C)c(N)n1 [thiamine]
- cell viability ([1]; 1 nM): 107%
- cell viability ([1]; 10 nM): 103%
- cell viability ([1]; 100 nM): 100%
- cell viability ([1]; 1000 nM): 96.9%
- cell viability ([1]; 10000 nM): 102%
- cell viability ([2]; 1 nM): 104%
- cell viability ([2]; 10 nM): 91.6%
- cell viability ([2]; 100 nM): 99.6%
- cell viability ([2]; 1000 nM): 104%
- cell viability ([2]; 10000 nM): 105%
- cell viability ([3]; 1 nM): 96%
- cell viability ([3]; 10 nM): 103%
- cell viability ([3]; 100 nM): 96.2%
- cell viability ([3]; 1000 nM): 105%
- cell viability ([3]; 10000 nM): 88.2%
- cell viability ([4]; 1 nM): 104%
- cell viability ([4]; 10 nM): 104%
- cell viability ([4]; 100 nM): 102%
- cell viability ([4]; 1000 nM): 105%
- cell viability ([4]; 10000 nM): 99.1%
- cell viability ([5]; 1 nM): 95.7%
- cell viability ([5]; 10 nM): 108%
- cell viability ([5]; 100 nM): 98.4%
- cell viability ([5]; 1000 nM): 102%
- cell viability ([5]; 10000 nM): 99.7%
- relative viability EC50 [6]: > 10 µM
- relative viability EC50 [7]: > 10 µM
- relative viability EC50 [8]: > 10 µM
- relative viability EC50 [9]: > 10 µM
- relative viability EC50 [10]: > 10 µM
- drug sensitivity score [11]: 0
- drug sensitivity score [12]: 0
- drug sensitivity score [13]: 0
- drug sensitivity score [14]: 0
- drug sensitivity score [15]: 0

Structure (SMILES): O=c1n(CCCN2CCN(c3cccc(Cl)c3)CC2)nc2ccccn12 [trazodone]
- cell viability ([1]; 1 nM): 99.5%
- cell viability ([1]; 10 nM): 98.2%
- cell viability ([1]; 100 nM): 97.5%
- cell viability ([1]; 1000 nM): 89.6%
- cell viability ([1]; 10000 nM): 96.4%
- cell viability ([2]; 1 nM): 105%
- cell viability ([2]; 10 nM): 92.4%
- cell viability ([2]; 100 nM): 95.1%
- cell viability ([2]; 1000 nM): 79.7%
- cell viability ([2]; 10000 nM): 99.3%
- cell viability ([3]; 1 nM): 95.8%
- cell viability ([3]; 10 nM): 99%
- cell viability ([3]; 100 nM): 94.1%
- cell viability ([3]; 1000 nM): 108%
- cell viability ([3]; 10000 nM): 91%
- cell viability ([4]; 1 nM): 102%
- cell viability ([4]; 10 nM): 104%
- cell viability ([4]; 100 nM): 98.5%
- cell viability ([4]; 1000 nM): 97.2%
- cell viability ([4]; 10000 nM): 98.3%
- cell viability ([5]; 1 nM): 98.8%
- cell viability ([5]; 10 nM): 101%
- cell viability ([5]; 100 nM): 95.6%
- cell viability ([5]; 1000 nM): 103%
- cell viability ([5]; 10000 nM): 101%
- relative viability EC50 [6]: > 10 µM
- relative viability EC50 [7]: > 10 µM
- relative viability EC50 [8]: > 10 µM
- relative viability EC50 [9]: > 10 µM
- relative viability EC50 [10]: > 10 µM
- drug sensitivity score [11]: 0
- drug sensitivity score [12]: 0
- drug sensitivity score [13]: 0
- drug sensitivity score [14]: 0
- drug sensitivity score [15]: 0

Structure (SMILES): O=C(Nc1ccc(Cl)cc1)Nc1ccc(Cl)c(Cl)c1 [triclocarban]
- cell viability ([1]; 1 nM): 82.8%
- cell viability ([1]; 10 nM): 59.4%
- cell viability ([1]; 100 nM): 94.2%
- cell viability ([1]; 1000 nM): 104%
- cell viability ([1]; 10000 nM): 87.9%
- cell viability ([2]; 1 nM): 97.2%
- cell viability ([2]; 10 nM): 93.3%
- cell viability ([2]; 100 nM): 97.3%
- cell viability ([2]; 1000 nM): 88.8%
- cell viability ([2]; 10000 nM): 100%
- cell viability ([3]; 1 nM): 90%
- cell viability ([3]; 10 nM): 88.1%
- cell viability ([3]; 100 nM): 99.6%
- cell viability ([3]; 1000 nM): 98.1%
- cell viability ([3]; 10000 nM): 97.1%
- cell viability ([4]; 1 nM): 92.6%
- cell viability ([4]; 10 nM): 96.5%
- cell viability ([4]; 100 nM): 94.2%
- cell viability ([4]; 1000 nM): 102%
- cell viability ([4]; 10000 nM): 97.2%
- cell viability ([5]; 1 nM): 101%
- cell viability ([5]; 10 nM): 89.4%
- cell viability ([5]; 100 nM): 103%
- cell viability ([5]; 1000 nM): 86.8%
- cell viability ([5]; 10000 nM): 95.4%
- relative viability EC50 [6]: > 10 µM
- relative viability EC50 [7]: > 10 µM
- relative viability EC50 [8]: > 10 µM
- relative viability EC50 [9]: > 10 µM
- relative viability EC50 [10]: > 10 µM
- drug sensitivity score [11]: 0
- drug sensitivity score [12]: 0
- drug sensitivity score [13]: 0
- drug sensitivity score [14]: 0
- drug sensitivity score [15]: 0
